Experimental data reported in PubChem BioAssay AID624395 (The Scripps Research Institute Molecular Screening Center, 2012).
The source made the active and inactive calls. No rule for the calls is given here.

Tested on: cell-based VP16 transactivation luciferase luminescence
Assay: compounds lowering VP16-driven reporter luminescence – cell-based, counter-screen for NR2E3 agonist project, dose response (AID 624395)

Row | Compound | IC50
1 | CCc1cccc2sc(N3CCN(C(=O)c4ccc([N+](=O)[O-])o4)CC3)nc12 | > 13.3 µM (inactive)
2 | Nc1nc(N)nc(-c2cc(O)ccc2O)n1 | 1.09 µM
3 | COc1ccccc1-n1c(=O)oc2ccc(Cl)cc2c1=O | 7.67 µM
4 | CCOC(=O)Cc1nnc2c(Nc3ccccc3F)nc3nonc3n12 | 4.03 µM
5 | COc1ccc(C(=O)c2c(C(F)(F)F)oc3c2C(=O)c2ccccc2C3=O)cc1OC | 1.68 µM
6 | CCC1(O)C(=O)OCc2c1cc1n(c2=O)Cc2cc3cc(O)ccc3nc2-1 (configuration not stated) | 3.4 µM
7 | CC(C)c1ccc(/C=C(\c2nc3ccccc3[nH]2)S(=O)(=O)c2ccccc2)cc1 | 13.2 µM (inactive)
